According to patent EP0083750A1, “Antimycotic azolyl butanols” (BAYER AG, priority 1981, dated 1983):
Values after ≈ are worked out from the molar mass of the structure shown. Structures can show the parent of a compound that is named as a salt.

Tests used:
Assay type in all cases: cell-based
Aspergillus fumig. = test: Antimycotic in-vitro activity, serial dilution test (MIC); details: 96 h, Reihenverdünnungstest, 5 x 10^4 Keimen/ml Substrat, Sabourand's milieu d'epreuve, 20°C, 96 Stunden, read-out: MHK-Werte in γ/ml Nährmedium, Aspergillus fumig.
Protocol: (§1) Versuchsbeschreibung: • Die in-vitro-Prüfungen wurden im Reihenverdünnungstest mit Keiminokula von durchschnittlich 5 x 10^4 Keimen/ml Substrat durchgeführt. Als Nährmedium dienten • a) für Dermatophyten und Schimmelpilze: Sabourand's milieu d'epreuve • b) für Hefen: • Fleischextrakt-Traubenzucker-Bouillon.
(§2) Die Bebrütungstemperatur betrug 20°C, die Bebrütungsdauer lag bei 24 bis 96 Stunden bei Hefen und 96 Stunden bei Dermatophyten und Schimmelpilzen.

Candida albicans = test: as above; details: Reihenverdünnungstest, 5 x 10^4 Keimen/ml Substrat, Fleischextrakt-Traubenzucker-Bouillon, 20°C, 24 bis 96 Stunden, read-out: MHK-Werte in γ/ml Nährmedium, Candida albicans
Protocol: as §1, §2

Microsporum canis = test: as above; details: 96 h, Reihenverdünnungstest, 5 x 10^4 Keimen/ml Substrat, Sabourand's milieu d'epreuve, 20°C, 96 Stunden, read-out: MHK-Werte in γ/ml Nährmedium, Microsporum canis
Protocol: as §1, §2

Torulopsis glabrata = test: as above; details: Nakaseomyces glabratus; Reihenverdünnungstest, 5 x 10^4 Keimen/ml Substrat, Fleischextrakt-Traubenzucker-Bouillon, 20°C, 24 bis 96 Stunden; read-out: MHK-Werte in γ/ml Nährmedium, Torulopsis glabrata
Protocol: as §1, §2

Trichophyton mentagr. = test: as above; details: 96 h, Reihenverdünnungstest, 5 x 10^4 Keimen/ml Substrat, Sabourand's milieu d'epreuve, 20°C, 96 Stunden, read-out: MHK-Werte in γ/ml Nährmedium, Trichophyton mentagr.
Protocol: as §1, §2

[1] = tested on: Dermatophyten, Schimmelpilze, Hefen; test: Antimycotic in-vitro activity, serial dilution test, overall comparison with prior art; details: in-vitro Reihenverdünnungstest
Protocol: as §1, §2

SMILES	MIC (Aspergillus fumig.) [µg/mL]	MIC (Candida albicans) [µg/mL]	MIC (Microsporum canis) [µg/mL]	MIC (Torulopsis glabrata) [µg/mL]	MIC (Trichophyton mentagr.) [µg/mL]	antimykotische Wirkung im Vergleich zu den bekannten Verbindungen (A) und (B) [1]
CC(C)(Oc1ccc(Cl)cc1Cl)C(O)C(Cc1ccc(Cl)cc1)n1cncn1 (centres unmarked) [Beispiel 1, 5-(4-Chlorphenyl)-2-(2,4-dichlorphen-oxy)-2-methyl-4-(1,2,4-triazol-1-yl)-pentan-3-ol-hydrochlorid]	64	16	64	64	2	bessere antimykotische Wirkung
CC(C)(COc1ccc(Cl)cc1)C(O)C(CC1CCCCC1)n1cncn1 (centres unmarked) [Beispiel 2, 1-(4-Chlorphenoxy)-5-cyclohexyl-2,2-dimethyl-4-(1,2,4-triazol-1-yl)-pentan-3-ol]	2 (≈ 5.1 µM)	< 1	2 (≈ 5.1 µM)	< 1	< 1	bessere antimykotische Wirkung
CC(C)(CSc1ccc(Cl)cc1)C(O)Cn1ccnc1 (centres unmarked) [Beispiel 3, 4-(4-Chlorphenylmercapto)-3,3-dimethyl-1-(imidazol-1-yl)-butan-2-ol]	16 (≈ 51.5 µM)	2 (≈ 6.43 µM)	2 (≈ 6.43 µM)	2 (≈ 6.43 µM)	8 (≈ 25.7 µM)	bessere antimykotische Wirkung
CC(C)(COc1ccc(Cl)cc1)C(O)Cn1cncn1 (centres unmarked) [Beispiel 4]	16 (≈ 54.1 µM)	32 (≈ 108 µM)	8 (≈ 27 µM)	> 64	16 (≈ 54.1 µM)	bessere antimykotische Wirkung
COCC(C)(C)C(O)C(Cc1ccc(Cl)cc1Cl)n1cncn1 (centres unmarked) [Beispiel 7]	64 (≈ 179 µM)	8 (≈ 22.3 µM)	8 (≈ 22.3 µM)	16 (≈ 44.7 µM)	8 (≈ 22.3 µM)	bessere antimykotische Wirkung
COCC(C)(C)C(O)C(Cc1ccc(Cl)cc1)n1cncn1 (centres unmarked) [Beispiel 9]	16 (≈ 49.4 µM)	8 (≈ 24.7 µM)	4 (≈ 12.4 µM)	32 (≈ 98.8 µM)	4 (≈ 12.4 µM)	bessere antimykotische Wirkung
Cc1ccc(CC(C(O)C(C)(C)COc2ccc(Cl)cc2)n2cncn2)cc1 (centres unmarked) [Beispiel 10]	4 (≈ 10 µM)	< 1	< 1	< 1	< 1	bessere antimykotische Wirkung
CC(C)(Oc1ccc(Cl)cc1Cl)C(O)C(Cc1ccc(Cl)cc1Cl)n1cncn1 (centres unmarked) [Beispiel 25]	> 64	> 64	8 (≈ 16.8 µM)	64 (≈ 135 µM)	< 1	bessere antimykotische Wirkung
CC(C)(Oc1ccc(Cl)cc1)C(O)C(Cc1ccccc1)n1cncn1 (centres unmarked) [Beispiel 26]	8 (≈ 21.5 µM)	< 1	< 1	4 (≈ 10.8 µM)	< 1	bessere antimykotische Wirkung
CC(C)(Oc1ccc(Cl)cc1)C(O)C(Cc1ccc(Cl)cc1Cl)n1cncn1 (centres unmarked) [Beispiel 27]	> 64	< 1	4 (≈ 9.08 µM)	< 1	< 1	bessere antimykotische Wirkung
CC(C)(Oc1ccc(Cl)cc1Cl)C(O)C(Cc1ccccc1)n1cncn1 (centres unmarked) [Beispiel 28]	16 (≈ 39.4 µM)	16 (≈ 39.4 µM)	4 (≈ 9.84 µM)	64 (≈ 158 µM)	2 (≈ 4.92 µM)	bessere antimykotische Wirkung
CC(C)(Oc1ccc(Cl)cc1)C(O)C(Cc1c(Cl)cccc1Cl)n1cncn1 (centres unmarked) [Beispiel 29]	> 64	< 1	4 (≈ 9.08 µM)	4 (≈ 9.08 µM)	< 1	bessere antimykotische Wirkung
CC(C)(CSc1ccc(Cl)cc1)C(O)C(Cc1ccc(F)cc1)n1cncn1 (centres unmarked) [Beispiel 40]	< 1	< 1	< 1	4 (≈ 9.52 µM)	< 1	
